Test results taken from patent publication US6583159B1, “Substitute 1-(piperidin-4-yl)-3-(aryl)-isothioureas, their preparation and therapeutic use” (Pierre Fabre Medicament, priority 1999, dated 2003).
Structures can show the parent of a compound that is named as a salt.

Legend:
rat isolated left atrium = test: Inhibition of the contraction with veratrine of the rat isolated left atrium; type: cell-based; settings: 10^−7M, veratrine-induced contraction
Procedure: The inhibition of the contraction with veratrine of the rat isolated left atrium was carried out according to the technique of Le Grand et al. (Naunyn-Schmiedebergs Arch. Pharmacol., (1993) 348, p. 184-190). The results are shown in Table I below, where the percentages of the inhibition are given at a concentration of 10^−7M.

anesthetized rabbit = test: Ischemia-reperfusion in the anesthetized rabbit, oral; type: in vivo
Excerpt: The compounds of the present invention are also active orally in the test of ischemia-reperfusion in the anesthetized rabbit according to the method of Verscheure et al., (J. Cardiovasc. Pharmacol., 1995, 25, 126-133).

[1] = system: guinea pig perfused isolated heart; test: Antiischemic activity, global ischemia in the guinea pig perfused isolated heart; type: cell-based; settings: Cavia porcellus, 10^−6M, ischemic contraction vs vehicle group
Procedure: The antiischemic activity was measured with regard to the test of the guinea pig perfused isolated heart according to the technique of Le Grand B. et al. (Am. J. Physiol., 269, H533-H540, 1995). The guinea pig hearts are removed, perfused with a modified Krebs solution and the compound to be studied, in solution in water or in a 99/01 water/DMSO mixture (according to solubility), is added after 20 minutes. […], global ischemia is brought about by halting coronary perfusion for 50 min, followed by reperfusion for 1 h. The inhibition of ischemic contraction in the presence of the compound studied is measured with respect to that of the vehicle group. The results are shown in Table II as nonlimiting examples at a concentration of 10^−6M.

| SMILES | melting point | also measured |
| --- | --- | --- |
| CS/C(=N\c1ccccc1)N(C)C1CCN(CCCCOc2ccc(F)cc2)CC1.O=C(O)/C=C/C(=O)O | 133 to 134 °C |  |
| CS/C(=N\c1ccc(F)cc1)N(C)C1CCN(CCCCOc2ccc(F)c(F)c2)CC1.O=C(O)/C=C/C(=O)O [Example 13, 1,2-Dimethyl-1-[1-[4-(3,4-difluorophenoxy)butyl]piperidin-4-yl]-3-(4-fluorophenyl)isothiourea hydrogen fumarate] | 125 °C | inhibition at 0.1 µM (rat isolated left atrium): 34% |
| CCS/C(=N\c1ccccc1)N(C)C1CCN(CCCCOc2ccc(F)c(F)c2)CC1.O=C(O)/C=C/C(=O)O | 151 to 152 °C |  |
| CS/C(=N\c1ccccc1)N(C)C1CCN(CCCCOc2ccc(C)c(C)c2)CC1.O=C(O)/C=C/C(=O)O | 138 to 139 °C |  |
| CS/C(=N\c1ccc([N+](=O)[O-])cc1)N(C)C1CCN(CCCCOc2ccc(F)c(F)c2)CC1.O=C(O)/C=C/C(=O)O | 132 °C |  |
| CN(c1nc2ccccc2s1)C1CCN(CCCCOc2ccc(F)cc2)CC1 [R 56865, N-(1-(4-(4-Fluorophenoxy)butyl)piperidin-4-yl)-N-methyl-2-benzothiazolamine] |  | inhibition at 0.1 µM (rat isolated left atrium): 33%; % arterial pressure variation (anesthetized rabbit; 2.5 mg/kg p.o.): 27%; % heart rate variation (anesthetized rabbit; 2.5 mg/kg p.o.): 0%; % inhibition with regard to ST-segment elevation (anesthetized rabbit; 2.5 mg/kg p.o.): 0%; Number of animals exhibiting reperfusion arrhythmias (anesthetized rabbit; 2.5 mg/kg p.o.): 2/5 |
| COc1ccc(/N=C(\SC)N(C)C2CCN(CCCCOc3ccc(F)c(F)c3)CC2)cc1.O=C(O)/C=C/C(=O)O | 130 °C |  |
| CS/C(=N\c1ccccc1)N(C)C1CCN(CCCOc2ccc(F)c(F)c2)CC1.O=C(O)/C=C/C(=O)O | 106 to 107 °C |  |
| CS/C(=N\c1ccccc1)N(C)C1CCN(CCCOCCc2ccc(F)cc2)CC1.O=C(O)/C=C/C(=O)O | 110 to 111 °C |  |
| CS/C(=N\c1ccccc1)N(CC(C)C)C1CCN(CCCCOc2ccc(F)c(F)c2)CC1.O=C(O)/C=C/C(=O)O | 131 to 132 °C |  |
| CS/C(=N\c1cccc(F)c1)N(C)C1CCN(CCCCOc2ccc(F)c(F)c2)CC1.O=C(O)/C=C/C(=O)O | 133 °C |  |
| CCN(/C(=N/c1ccccc1)SC)C1CCN(CCCCOc2ccc(F)c(F)c2)CC1.O=C(O)/C=C/C(=O)O [Example 3, 1-Ethyl-1-[1-[4-(3,4-difluorophenoxy)butyl]piperidin-4-yl]-2-methyl-3-phenylisothiourea hydrogen fumarate] | 120 to 121 °C | inhibition at 0.1 µM (rat isolated left atrium): 32% |
| CS/C(=N\c1ccccc1)N(C)C1CCN(CCCCOc2ccc(F)c(F)c2)CC1.O=C(O)/C=C/C(=O)O [Example 1, 1,2-Dimethyl-3-phenyl-1-[1-[4-(3,4-difluorophenoxy)butyl]piperidin-4-yl]isothiourea hydrogen fumarate] | 151 to 152 °C | inhibition at 0.1 µM (rat isolated left atrium): 28%; inhibition at 1 µM [1]: 69%; % arterial pressure variation (anesthetized rabbit; 0.63 mg/kg p.o.): −3%; % heart rate variation (anesthetized rabbit; 0.63 mg/kg p.o.): 5%; % inhibition with regard to ST-segment elevation (anesthetized rabbit; 0.63 mg/kg p.o.): 58%; Number of animals exhibiting reperfusion arrhythmias (anesthetized rabbit; 0.63 mg/kg p.o.): 1/5 |
| CS/C(=N\c1c(C)cccc1C)N(C)C1CCN(CCCCOc2ccc(F)c(F)c2)CC1.O=C(O)/C=C/C(=O)O | 129 °C |  |
| CS/C(=N\c1ccccc1F)N(C)C1CCN(CCCCOc2ccc(F)c(F)c2)CC1.O=C(O)/C=C/C(=O)O | 148 °C |  |
| CS/C(=N\c1ccccc1)N(C)C1CCN(CCOc2ccc(F)cc2)CC1.O=C(O)/C=C/C(=O)O | 120 °C |  |
| CS/C(=N\c1ccc(Cl)cc1)N(C)C1CCN(CCCCOc2ccc(F)c(F)c2)CC1.O=C(O)/C=C/C(=O)O | 130 °C |  |
| CN(C1=Nc2ccccc2CS1)C1CCN(CCCCOc2ccc(F)c(F)c2)CC1 [PF Control, N-[1-[4-(3,4-Difluorophenoxy)butyl]piperidin-4-yl]-N-methyl-4H-3,1-benzothiazin-2-amine] |  | inhibition at 0.1 µM (rat isolated left atrium): 25%; inhibition at 1 µM [1]: 48%; % arterial pressure variation (anesthetized rabbit; 0.63 mg/kg p.o.): 9%; % heart rate variation (anesthetized rabbit; 0.63 mg/kg p.o.): 9%; % inhibition with regard to ST-segment elevation (anesthetized rabbit; 0.63 mg/kg p.o.): 33%; Number of animals exhibiting reperfusion arrhythmias (anesthetized rabbit; 0.63 mg/kg p.o.): 1/5 |
| CS/C(=N\c1ccccc1)N(C)C1CCN(CCCCCOc2ccc(F)c(F)c2)CC1.O=C(O)/C=C/C(=O)O | 129 to 130 °C |  |
| CS/C(=N\c1c(F)cccc1F)N(C)C1CCN(CCCCOc2ccc(F)c(F)c2)CC1 [Example 21, 1,2-Dimethyl-1-[1-[4-(3,4-difluorophenoxy)butyl]piperidin-4-yl]-3-(2,6-difluorophenyl)isothiourea hydrogen fumarate] |  | inhibition at 0.1 µM (rat isolated left atrium): 31%; inhibition at 1 µM [1]: 53% |
| COc1cc(Cl)ccc1OCCCCN1CCC(N(C)/C(=N/c2ccccc2)SC)CC1.O=C(O)/C=C/C(=O)O | 106 to 107 °C |  |
| CS/C(=N\c1ccc(C)cc1)N(C)C1CCN(CCCCOc2ccc(F)c(F)c2)CC1.O=C(O)/C=C/C(=O)O | 141 °C |  |
| CS/C(=N\c1c(C(C)C)cccc1C(C)C)N(C)C1CCN(CCCCOc2ccc(F)c(F)c2)CC1.O=C(O)/C=C/C(=O)O | 194 °C |  |
| COc1ccc(OCCCCN2CCC(N(C)/C(=N/c3ccccc3)SC)CC2)cc1.O=C(O)/C=C/C(=O)O | 120 °C |  |
